Where “and” joins values, the source holds several entries; their conditions need not be identical. Identical values can stand only once.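 Five concentrations, 48 hours, 96-well plates. GI50: concentration for 50% inhibition of growth. TGI: total growth inhibition.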
Tests used:
Assay in all cases: NCI-60 cell line screen, 48 h
M14 melanoma = test system: M14 melanoma
OVCAR-8 ovarian = test system: OVCAR-8 ovarian
K-562 leukemia = test system: K-562 leukemia
UO-31 renal = test system: UO-31 renal
ACHN renal = test system: ACHN renal
MALME-3M melanoma = test system: MALME-3M melanoma
KM12 colon = test system: KM12 colon
UACC-62 melanoma = test system: UACC-62 melanoma
MDA-MB-231 breast = test system: MDA-MB-231 breast
MCF7 breast = test system: MCF7 breast

Row | SMILES | TGI (M14 melanoma) [µM] | TGI (OVCAR-8 ovarian) | TGI (K-562 leukemia) | TGI (UO-31 renal) | TGI (ACHN renal) | TGI (MALME-3M melanoma) [µM] | TGI (KM12 colon) | TGI (UACC-62 melanoma) | GI50 (MDA-MB-231 breast) | TGI (MDA-MB-231 breast) | GI50 (K-562 leukemia) | TGI (MCF7 breast) [µM] | GI50 (M14 melanoma) [µM] | GI50 (OVCAR-8 ovarian) [µM] | GI50 (UO-31 renal) [µM] | GI50 (ACHN renal) [µM] | GI50 (MCF7 breast) [µM] | GI50 (KM12 colon) [µM] | GI50 (UACC-62 melanoma) [µM] | GI50 (MALME-3M melanoma) [µM]
1 | Cc1c(Cl)ccc2[s+]snc12 | 77.8 | 57.1 µM | 73.7 µM | > 100 µM | > 100 µM | > 100 | > 100 µM | 45.2 µM |  |  |  |  |  |  |  |  |  |  |  | 
2 | C[C@H](O)CCC(=O)c1ccoc1 | > 100 | > 100 µM | > 100 µM | > 100 µM | > 100 µM | > 100 | > 100 µM | > 100 µM |  |  |  |  |  |  |  |  |  |  |  | 
3 | O=C(/C=C/c1ccccc1)c1ccccn1 | 29.9 | 34.6 µM and > 100 µM | 36.6 µM and > 100 µM | 31 µM and 46.5 µM | 28.9 µM and 31 µM |  | 34.2 µM and 28.5 µM | 36.8 µM and 41.4 µM | 15.6 µM and 35.8 µM | 30.7 µM and > 100 µM | 4.36 µM and 21.6 µM | 37.1 |  |  |  |  |  |  |  | 
4 | Cc1nc2ccccc2c(=O)n1/N=C(\N=Nc1ccc(Cl)cc1)c1ccc(N(C)C)cc1 |  | > 100 µM | > 100 µM | > 100 µM | > 100 µM |  |  | > 100 µM |  |  |  |  |  |  |  |  |  |  |  | 
5 | N#CC1(C2CC(=O)N(c3ccccc3)C2=O)CCCCC1=O (stereo not given) | > 100 | > 100 µM | > 100 µM | > 100 µM | > 100 µM | > 100 | > 100 µM | > 100 µM |  |  |  |  |  |  |  |  |  |  |  | 
6 | O=C(Nc1cc(Cl)ccc1Cl)c1cc2ccccc2oc1=O | > 100 | > 100 µM | > 100 µM |  | > 100 µM | 90.3 | > 100 µM | > 100 µM |  |  |  |  |  |  |  |  |  |  |  | 
7 | CC1(C)OC2OC(/C=C/[N+](=O)[O-])C3OC(C)(C)OC3C2O1 (stereo not given) | 27.3 | 40.9 µM | 27.5 µM | 34.8 µM | 28.8 µM | 10.8 | 31.5 µM | 28.6 µM |  |  |  |  |  |  |  |  |  |  |  | 
8 | CCCCCCCCCCCCCCCCCCCCCCC(=O)N[C@H]1CCc2cc(OC)c(OC)c(OC)c2-c2ccc(SC)c(=O)cc21 | 90.4 | 85.6 µM | > 100 µM | > 100 µM | > 100 µM | > 100 | > 100 µM | > 100 µM |  |  |  |  |  |  |  |  |  |  |  | 
9 | COC(=O)N1C=Cc2c(c(C)c3c([nH]c4ccccc43)c2C)C1C (stereo not given) | 71.1 | 39.8 µM | 37.7 µM | 34.2 µM |  | 36.3 |  | 34.9 µM |  |  |  |  |  |  |  |  |  |  |  | 
10 | Cc1cc2c(=O)cc(-c3ccncc3)oc2c(C(N)=O)c1C |  | > 100 µM |  | > 100 µM | > 100 µM | > 100 |  | > 100 µM |  |  |  |  |  |  |  |  |  |  |  | 
11 | O=C1C(=C2C(=O)c3ccccc3[N+]2=O)N([O-])c2ccccc21 | 43.7 | 50.4 µM | 50.1 µM | > 100 µM | 91.4 µM |  |  |  |  |  |  |  |  |  |  |  |  |  |  | 
12 | O=C(CNC(=O)c1cccc2ccccc12)Nc1ccccc1Oc1ccc(O)cc1 | > 25 | > 25 µM | > 25 µM | > 25 µM | > 25 µM |  | > 25 µM | > 25 µM | 3.18 µM | > 25 µM | 0.497 µM | > 25 | 0.698 | 1.31 | 1.78 | 1.86 | 0.847 | 0.919 | 1.17 | 
13 | CC(=O)NNc1nc(C)c(C(=O)NNC(=O)C(=O)Nc2ccc(C)cc2[N+](=O)[O-])s1 | > 100 | > 100 µM | > 100 µM | > 100 µM | > 100 µM | > 100 | > 100 µM | > 100 µM |  |  |  |  |  |  |  |  |  |  |  | 
14 | CCCCP1(=O)C=CC(Cl)=C(C)C1 (stereo not given) | > 100 | > 100 µM | > 100 µM | > 100 µM | > 100 µM | > 100 | > 100 µM | > 100 µM |  |  |  |  |  |  |  |  |  |  |  | 
15 | C=CN(C(=O)N1CCN(c2cc3c(cc2F)c(=O)c(C(=O)O)cn3C2CC2)CC1)c1nc(-c2ccc(C)cc2)cs1 |  | 19.9 µM | > 100 µM |  | > 100 µM | > 100 | > 100 µM |  | 2.99 µM | > 100 µM | 1.96 µM | 11.5 |  | 3.33 |  | 3.38 | 2.88 | 3.45 |  | 3.35
16 | COc1cc(/C=C(\C#N)C(=O)c2ccccc2)cc(OC)c1OC | > 100 | > 100 µM | > 100 µM | > 100 µM | > 100 µM | > 100 | > 100 µM | > 100 µM |  |  |  |  |  |  |  |  |  |  |  | 
17 | CC(=O)Nc1ccc(/C=C/C(=O)c2sc(-n3nc(-c4ccccc4)cc3-c3ccccc3)nc2C)cc1 | > 100 | > 100 µM | > 100 µM | > 100 µM | > 100 µM | > 100 | > 100 µM | > 100 µM |  |  | > 100 µM |  | > 100 | > 100 | > 100 | > 100 |  |  | > 100 | > 100
18 | Nc1ncnc2c1ncn2C1SC(CO)C(O)C1O (stereo not given) | 55.6 | 23.6 µM | > 100 µM | 41.9 µM | > 100 µM |  | > 100 µM | > 100 µM | 10.9 µM | 34.8 µM | 16.9 µM | 31.6 | 21 | 4 | 18.8 | 31.8 | 3.21 | 23 | > 100 | 
19 | CCc1cccc(CC)c1NC1=CC(=O)C(=O)c2ccccc21 | 27.2 | 36.7 µM | > 100 µM | 46.9 µM | 26 µM | 31.9 | 33.2 µM | 30.1 µM |  |  |  |  |  |  |  |  |  |  |  | 
20 | O=C(N=Nc1c(O)[nH]c2c(Cl)cc(Cl)cc12)C(=O)Nc1cccc(C(F)(F)F)c1 | > 100 | > 100 µM |  | > 100 µM | > 100 µM | > 100 | > 100 µM | > 100 µM |  | > 100 µM |  | > 100 |  |  |  |  |  |  |  | 
21 | CC1(C)CCC(c2ccc(Cl)cc2)=C(CN2CCN(c3ccc(C(=O)NS(=O)(=O)c4ccc(N[C@H](CCN5CCOCC5)CSc5ccccc5)c(S(=O)(=O)C(F)(F)F)c4)cc3)CC2)C1 | 3.38 | 5.18 µM | 8.02 µM | 3.21 µM | 3.14 µM |  | 3.42 µM | 2.92 µM | 0.642 µM | 2.17 µM | 2.45 µM | 5.51 | 1.83 | 2.19 | 1.74 | 1.72 | 2.11 | 1.72 | 1.43 | 
22 | O=P(c1ccccc1)(c1ccccc1)C1CC=C2CCCCCC2C1 (stereo not given) | 40.9 | 99.2 µM | 76.9 µM | 52.7 µM |  | > 100 | > 100 µM | 69.6 µM |  |  |  |  |  |  |  |  |  |  |  | 

From PubChem BioAssay (NCI)
